Laboratory results reported in publication PMC5082792 (PLoS ONE, 2016).

How the values were obtained:
[1] = cited from earlier work
HIV = tested on: HIV; design: method as in PMID 17617270, PMID 17617271; conditions: treatment-experienced patients, with optimized background regimen including DRV/r 600/100 mg BID; cited from earlier work
[2] = DRV plasma trough concentration ([DRV]plasma) by UPLC-DAD in HIV-1 infected patients, by CYP3A5 genotype-based expression status; format: in vivo, human
Description: After a clinical assessment and in addition to the samples routinely collected for the clinical follow-up (viral load, CD4 cell count), two more blood samples were drawn immediately before drug intake, with the highest timing precision conceivable given the ambulatory context of the study recruitment. […] In order to obtain a post-intake delay as close as possible to the trough sampling time, each patient was personally contacted by phone a few days before the study visit to ensure not taking the medication prior to blood sampling.
Plasma was then collected and stored at -20°C until the day of quantification.
Genotype and allele frequencies were calculated and deviations from Hardy-Weinberg equilibrium (HWE) were evaluated using exact tests.
The patients were also classified into CYP3A5 expressors (CYP3A5*1 allele carriers) and CYP3A5 non-expressors (CYP3A5*3 homozygous).

[3] = addition of ETR 200mg bid to DRV/r 600/100mg bid; cited from earlier work

Question: Which results are given for `Cc1cc(C#N)cc(C)c1Oc1nc(Nc2ccc(C#N)cc2)nc(N)c1Br` [ETR, Etravirine]?
Answer: decrease of ETR exposure ([1]; DRV/r with ETR 100mg twice daily compared to ETR alone): 37%; virological efficacy, immunological recovery and clinical progression versus placebo (HIV): superiority

Question: What does the source list for `CC(C)CN(C[C@@H](O)[C@H](Cc1ccccc1)NC(=O)O[C@H]1CO[C@H]2OCC[C@H]21)S(=O)(=O)c1ccc(N)cc1` [DRV, Darunavir]?
Answer: decrease of plasma drug concentration by the drug-drug interaction ([2]; CYP3A5 expressors versus non-expressors, DRV with ETR): more than 55%; mean [DRV]plasma (geometric mean trough concentration) ([2]; overall, all 135 patients): 1805 ng/mL; [DRV]plasma of a single patient ([2]; person, CYP3A5 expressor, DRV/r and ETR, detectable viral load): 652 ng/mL; DRV plasma concentration (geometric mean) ([2]; subgroup DRV/r 600/100mg BID plus ETR n = 13, CYP3A5 expressors n = 5): • 1486ng/ml • (CI95%:725–3044) • n = 5; DRV plasma concentration (geometric mean) ([2]; subgroup DRV/r 600/100mg BID plus ETR n = 13, CYP3A5 non-expressors n = 8): • 3141ng/ml • (CI95%: 2042–4831) • n = 8; DRV plasma concentration (geometric mean) ([2]; subgroup DRV/r 600/100mg BID, CYP3A5 expressors n = 19): • 2411 • (CI95%: 1895–3067) • n = 19 ng/ml; DRV plasma concentration (geometric mean) ([2]; subgroup DRV/r 600/100mg BID, CYP3A5 non-expressors n = 23): • 2430 • (CI95%: 1817–3249) • n = 23 ng/ml; DRV plasma concentration (geometric mean) ([2]; subgroup DRV/r 800/100mg QD, CYP3A5 expressors n = 41): • 1693ng/ml • (CI95%:1314–2182) • n = 41; DRV plasma concentration (geometric mean) ([2]; subgroup DRV/r 800/100mg QD, CYP3A5 non-expressors n = 52): • 1498ng/ml • (CI95%: 1227–1828) • n = 52; DRV PK parameters (in particular Ctrough and Cmax) ([1]; DRV/r 600/100mg bid with ETR 100mg or 200mg bid, healthy volunteers): unchanged; increase of DRV AUC [3]: 14%
